Literature values, collected in patent publication US20160213656A1, “H[…] FORM” (Sovereign Pharmaceuticals, LLC, priority 2004, published 2016).

For `CN1[C@@H]2CC[C@H]1C[C@@H](OC(=O)[C@H](CO)c1ccccc1)C2` [hyoscyamine], the “time for which therapeutic levels are maintained” value (once absorbed, blood) is listed as “approximately 3.5 hours” and the “time within which the majority of hyoscyamine is excreted in the urine unchanged” value (urine, unchanged drug) is listed as ≤ 12 h.
